SMILES strings stand for the structures.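 Tested at 5 concentrations; 48 h exposure; 96-well plates; endpoints linearly interpolated, else capped at highest concentration. Abbreviation: GI50, concentration required for 50% inhibition of growth. The concentration for full growth arrest is given as TGI.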

The first assay deals with IGROV1 ovarian. The experiment in a line: DTP human tumour cell line panel, 48 h.
`CC1(C)OC[C@@H](C[C@H](O)COCc2ccccc2)O1`: the TGI (as a rule, the concentration at which net growth stops) was more than 100 µM.
Same read-out and setting: with `NC(N)=NS(=O)(=O)c1ccc(NC(=O)c2cccc3c(NNc4ccc(S(N)(=O)=O)cc4)c4ccccc4nc23)cc1` the figure was more than 100 µM; with `Nc1nncc2[nH]cnc12`, more than 100 µM.
The same measure, in the same setting: with `O=[N+]([O-])/C(Cl)=C(/C(Cl)=C(Cl)Cl)N1CCCCC1` the figure was 23.4 µM; with `Nc1c(S(N)(=O)=O)cc(S(N)(=O)=O)cc1S(N)(=O)=O`, more than 100 µM.
The molecule `CCCCCCc1cc2cc(-c3csc(-c4ccc(OC)cc4)n3)c(=O)oc2cc1O` showed a TGI of 19.1 µM.
In turn, `COc1ccc(C2=C(Cl)C(=O)O/C2=C\c2ccc(OC)c(Br)c2)cc1Cl` showed a TGI of more than 100 µM.
In the case of `CNC(=S)NNc1ncnc2c1c(-c1ccc(Cl)cc1)cn2-c1ccc(C)cc1`, the TGI was 25 µM.
On to `Clc1cc(C(c2cc(Cl)sc2Cl)c2cc(Cl)sc2Cl)c(Cl)s1`, for which the TGI was more than 100 µM.
The same measure, in the same setting: in the case of `COc1cc(OC)cc(Oc2nc3cc(F)c(F)cc3nc2-c2ccccc2)c1` it was more than 100 µM.
Still for that read-out and setting: with `C[N+]1(CCN=C=NC2CCCCC2)CCOCC1` the figure was more than 100 µM.
`Cc1cc(S(=O)(=O)Nc2n[nH]c(Nc3ccccc3)n2)c(SCC(=O)O)cc1Cl` came in with a concentration for total growth inhibition (TGI) of more than 100 µM.
Molecule `COc1cc2c3c(cc(Cl)nc3c1OC)C(=O)C(=O)N2` registered a TGI of 25.1 µM.
Still for that read-out and setting: with `CCCCCCCCCCCCOCCOCCOCCOCCOCCOCC(=O)NC(Cc1ccccc1)C(=O)Oc1ccc([N+](=O)[O-])cc1` (stereo not drawn) the figure was more than 100 µM.

In the next assay the test system is SNB-19 CNS. The experiment in a line: DTP human tumour cell line panel, 48 h.
Molecule `Cc1ccc2c(c1C)CC1(Cc3c(C)ccc(C)c3C1=O)C2=O` (stereo not drawn) came in with a concentration for total growth inhibition (TGI) of more than 100 µM.
`O=CN1CCN(C(=O)c2ccco2)C1=S`: the TGI is more than 70.6 µM.
As to `O=C1/C(=C/c2ccc(Cl)cc2)CCCc2ccc(F)cc21`, the GI50 (in general, the concentration giving 50% growth inhibition) was 27.6 µM and the TGI amounted to 80.2 µM.
The molecule `CC(=O)C1(O)CCC2(O)C3(O)CC=C4CC(O)CCC4(C)C3CC(OC(=O)c3ccc(O)cc3)C12C` (stereo not drawn) displayed a total growth inhibition concentration (TGI) of more than 100 µM.
Same read-out and setting: in the case of `O=C1/C(=C/c2ccncc2)C(n2cccc2)c2c(Br)sc(Br)c21` (stereo not drawn) it was 30.6 µM; in that of `COCC#C[C@@]1(O)CCCCC1CC(OC)OC` (stereo partly drawn), more than 100 µM; in that of `C=C1CC(COc2ccc3c(C)c(C)c(=O)oc3c2C)(c2ccccc2)OC1=O` (stereo not drawn), 27.1 µM.
On the same count and under the same terms, with `CC(=O)OCC(=O)O[C@@H]1[C@H]2[C@@H](OC(=O)c3ccccc3)[C@@H](C)C[C@]2(O)[C@H](OC(C)=O)[C@@]2(C)C[C@]1(OC(C)=O)C[C@H]1C(=O)C(C)(C)[C@@H](OC(C)=O)[C@@H]12` the figure was more than 25 µM; with `O=C(Sc1c(-c2ccccc2)c(=O)n(-c2ccccc2)c(=S)n1-c1ccccc1)c1ccco1`, more than 100 µM.
Same read-out and setting: in the case of `Cn1nc2c(c1N)Cc1c(nn(C)c1N)-c1ccccc1-2` it was more than 100 µM; in that of `Cc1nnc2n1-c1ccccc1N(Cc1ccccc1)CC2`, more than 100 µM.
Turning to `O=C(/C=C\Nc1ccccc1O)C(F)(F)F`, the concentration for total growth inhibition (TGI) was more than 100 µM.
Still for that read-out and setting: in the case of `CC1(C)OC[C@@H](C[C@H](O)COCc2ccccc2)O1` it was more than 100 µM.
Molecule `NC(N)=NS(=O)(=O)c1ccc(NC(=O)c2cccc3c(NNc4ccc(S(N)(=O)=O)cc4)c4ccccc4nc23)cc1` showed a TGI of more than 100 µM.
On the same count and under the same terms, in the case of `Nc1nncc2[nH]cnc12` it was more than 100 µM; in that of `O=[N+]([O-])/C(Cl)=C(/C(Cl)=C(Cl)Cl)N1CCCCC1`, 54.1 µM; in that of `Nc1c(S(N)(=O)=O)cc(S(N)(=O)=O)cc1S(N)(=O)=O`, more than 100 µM.
The molecule `CCCCCCc1cc2cc(-c3csc(-c4ccc(OC)cc4)n3)c(=O)oc2cc1O` displayed a TGI of 36 µM.
For `COc1ccc(C2=C(Cl)C(=O)O/C2=C\c2ccc(OC)c(Br)c2)cc1Cl`, the TGI came out at 80.6 µM.
Still for that read-out and setting: in the case of `CNC(=S)NNc1ncnc2c1c(-c1ccc(Cl)cc1)cn2-c1ccc(C)cc1` it was 36.6 µM; in that of `Clc1cc(C(c2cc(Cl)sc2Cl)c2cc(Cl)sc2Cl)c(Cl)s1`, more than 100 µM.
Still for that read-out and setting: in the case of `COc1cc(OC)cc(Oc2nc3cc(F)c(F)cc3nc2-c2ccccc2)c1` it was more than 100 µM; in that of `C[N+]1(CCN=C=NC2CCCCC2)CCOCC1`, more than 100 µM.
Take `Cc1cc(S(=O)(=O)Nc2n[nH]c(Nc3ccccc3)n2)c(SCC(=O)O)cc1Cl`: the TGI is more than 100 µM.
`COc1cc2c3c(cc(Cl)nc3c1OC)C(=O)C(=O)N2` gave a TGI of 42.6 µM.
On the same count and under the same terms, with `CCCCCCCCCCCCOCCOCCOCCOCCOCCOCC(=O)NC(Cc1ccccc1)C(=O)Oc1ccc([N+](=O)[O-])cc1` (stereo not drawn) the figure was more than 100 µM.

A further assay has as its system SF-268 CNS. The experiment in a line: DTP human tumour cell line panel, 48 h.
In turn, `Cc1ccc2c(c1C)CC1(Cc3c(C)ccc(C)c3C1=O)C2=O` (stereo not drawn) yielded a TGI of more than 100 µM.
On the same count and under the same terms, with `O=CN1CCN(C(=O)c2ccco2)C1=S` the figure was 28.8 µM.
Regarding `O=C1/C(=C/c2ccc(Cl)cc2)CCCc2ccc(F)cc21`, the GI50 is 19.9 µM and the TGI turned out to be 46.9 µM.
Take `CC(=O)C1(O)CCC2(O)C3(O)CC=C4CC(O)CCC4(C)C3CC(OC(=O)c3ccc(O)cc3)C12C` (stereo not drawn): the TGI is more than 100 µM.
The molecule `O=C1/C(=C/c2ccncc2)C(n2cccc2)c2c(Br)sc(Br)c21` (stereo not drawn) returned a TGI of 11 µM.
The same measure, in the same setting: in the case of `COCC#C[C@@]1(O)CCCCC1CC(OC)OC` (stereo partly drawn) it was more than 100 µM; in that of `C=C1CC(COc2ccc3c(C)c(C)c(=O)oc3c2C)(c2ccccc2)OC1=O` (stereo not drawn), 7.96 µM; in that of `CC(=O)OCC(=O)O[C@@H]1[C@H]2[C@@H](OC(=O)c3ccccc3)[C@@H](C)C[C@]2(O)[C@H](OC(C)=O)[C@@]2(C)C[C@]1(OC(C)=O)C[C@H]1C(=O)C(C)(C)[C@@H](OC(C)=O)[C@@H]12`, more than 25 µM.
Still for that read-out and setting: in the case of `O=C(Sc1c(-c2ccccc2)c(=O)n(-c2ccccc2)c(=S)n1-c1ccccc1)c1ccco1` it was more than 100 µM; in that of `Cn1nc2c(c1N)Cc1c(nn(C)c1N)-c1ccccc1-2`, more than 100 µM; in that of `Cc1nnc2n1-c1ccccc1N(Cc1ccccc1)CC2`, more than 100 µM.
On the same count and under the same terms, with `O=C(/C=C\Nc1ccccc1O)C(F)(F)F` the figure was more than 100 µM.
In turn, `CC1(C)OC[C@@H](C[C@H](O)COCc2ccccc2)O1` displayed a TGI of more than 100 µM.
`NC(N)=NS(=O)(=O)c1ccc(NC(=O)c2cccc3c(NNc4ccc(S(N)(=O)=O)cc4)c4ccccc4nc23)cc1`: the TGI was more than 100 µM.
For the molecule `Nc1nncc2[nH]cnc12`, the TGI is more than 100 µM.
Turning to `O=[N+]([O-])/C(Cl)=C(/C(Cl)=C(Cl)Cl)N1CCCCC1`, the TGI was 75.1 µM.
On to `Nc1c(S(N)(=O)=O)cc(S(N)(=O)=O)cc1S(N)(=O)=O`, for which the TGI is more than 100 µM.
On the same count and under the same terms, in the case of `CCCCCCc1cc2cc(-c3csc(-c4ccc(OC)cc4)n3)c(=O)oc2cc1O` it was 14.9 µM; in that of `COc1ccc(C2=C(Cl)C(=O)O/C2=C\c2ccc(OC)c(Br)c2)cc1Cl`, 38 µM.
On the same count and under the same terms, in the case of `CNC(=S)NNc1ncnc2c1c(-c1ccc(Cl)cc1)cn2-c1ccc(C)cc1` it was 26.8 µM; in that of `Clc1cc(C(c2cc(Cl)sc2Cl)c2cc(Cl)sc2Cl)c(Cl)s1`, more than 100 µM.
Molecule `COc1cc(OC)cc(Oc2nc3cc(F)c(F)cc3nc2-c2ccccc2)c1` returned a TGI of more than 100 µM.
On the same count and under the same terms, in the case of `C[N+]1(CCN=C=NC2CCCCC2)CCOCC1` it was more than 100 µM; in that of `Cc1cc(S(=O)(=O)Nc2n[nH]c(Nc3ccccc3)n2)c(SCC(=O)O)cc1Cl`, more than 100 µM.
With `COc1cc2c3c(cc(Cl)nc3c1OC)C(=O)C(=O)N2`, the TGI was 31.6 µM.
Molecule `CCCCCCCCCCCCOCCOCCOCCOCCOCCOCC(=O)NC(Cc1ccccc1)C(=O)Oc1ccc([N+](=O)[O-])cc1` (stereo not drawn) returned a TGI of more than 100 µM.

(Values after PubChem BioAssay (NCI).)
